Laboratory results: patent publication US8802597B2, “Herbicidal pyrimidines” (E I du Pont de Nemours and Company, priority 2003, dated 2014)
Like-named read-outs stand apart in the source and are kept apart here.

Assays:
Assay in all cases: Test C pre/postemergence
Format in all cases: in vivo
[1] = test system: Surinam grass (Brachiaria decumbens); details: Urochloa decumbens; for pest or weed control at 125 g/ha: 125 g ai/ha; for pest or weed control at 31 g/ha: 31 g ai/ha; for pest or weed control at 62 g/ha: 62 g ai/ha; for pest or weed control at 250 g/ha: 250 g ai/ha
Description: (§1) Seeds or nutlets of plant species selected from bermudagrass (Cynodon dactylon), Surinam grass (Brachiaria decumbens), cocklebur (Xanthium strumarium), corn (Zea mays), crabgrass (Digitaria sanguinalis), woolly cupgrass (Eriochloa villosa), giant foxtail (Setaria faberii), goosegrass (Eleusine indica), johnsongrass (Sorghum halepense), kochia (Kochia scoparia), lambsquarters (Chenopodium album), morningglory (Ipomoea coccinea), eastern black nightshade (Solanum ptycanthum), yellow nutsedge (Cyperus esculentus), pigweed (Amaranthus retroflexus), common ragweed (Ambrosia elatior), soybean (Glycine max), common (oilseed) sunflower (Helianthus annuus), and velvetleaf (Abutilon theophrasti) were planted and treated preemergence with test chemicals formulated in a non-phytotoxic solvent mixture which included a surfactant.
(§2) At the same time, plants selected from these crop and weed species and also winter barley (Hordeum vulgare), blackgrass (Alopecurus myosuroides), canarygrass (Phalaris minor), chickweed (Stellaria media), downy brome (Bromus tectorum), green foxtail (Setaria viridis), Italian ryegrass (Lolium multiflorum), wheat (Triticum aestivum), wild oat (Avena fatua) and windgrass (Apera spica-venti) were treated with postemergence applications of some of the test chemicals formulated in the same manner. Plants ranged in height from 2 to 18 cm (1- to 4-leaf stage) for postemergence treatments. Plant species in the flooded paddy test consisted of rice (Oryza sativa), umbrella sedge (Cyperus difformis), duck salad (Heteranthera limosa) and barnyardgrass (Echinochloa crus-galli) grown to the 2-leaf stage for testing. Treated plants and controls were maintained in a greenhouse for 12 to 14 days, after which time all species were compared to controls and visually evaluated. Plant response ratings, summarized in Table C, are based on a scale of 0 to 100 where 0 is no effect and 100 is complete control. A dash (-) response means no test result.

[2] = test system: common (oilseed) sunflower (Helianthus annuus); details: Helianthus annuus, pre-emergence, Preemergence, read-out: Plant response rating, Sunflower
Description: as §1, §2

[3] = test system: common ragweed (Ambrosia elatior); details: Ambrosia artemisiifolia; for pest or weed control at 31 g/ha: 31 g ai/ha; for pest or weed control at 62 g/ha: 62 g ai/ha; for pest or weed control at 125 g/ha: 125 g ai/ha; for pest or weed control at 250 g/ha: 250 g ai/ha
Description: as §1, §2

[4] = test system: giant foxtail (Setaria faberii); details: Setaria faberi; for pest or weed control at 125 g/ha: 125 g ai/ha; for pest or weed control at 31 g/ha: 31 g ai/ha; for pest or weed control at 62 g/ha: 62 g ai/ha; for pest or weed control at 250 g/ha: 250 g ai/ha
Description: as §1, §2

[5] = test system: johnsongrass (Sorghum halepense); details: Sorghum halepense; for pest or weed control at 31 g/ha: 31 g ai/ha; for pest or weed control at 62 g/ha: 62 g ai/ha; for pest or weed control at 125 g/ha: 125 g ai/ha; for pest or weed control at 250 g/ha: 250 g ai/ha
Description: as §1, §2

kochia (Kochia scoparia) = details: Bassia scoparia; for pest or weed control at 31 g/ha: 31 g ai/ha; for pest or weed control at 62 g/ha: 62 g ai/ha; for pest or weed control at 125 g/ha: 125 g ai/ha; for pest or weed control at 250 g/ha: 250 g ai/ha
Description: as §1, §2

[6] = post-emergence, Postemergence, scale 0 to 100 (0 no effect, 100 complete control), read-out: Surinam Grass plant response rating
[7] = pre-emergence, Preemergence, scale 0 to 100, 0 no effect, 100 complete control, read-out: Plant response rating, Surinam Grass
[8] = pre-emergence, Preemergence, scale 0 to 100, read-out: Plant response rating, Surinam Grass
[9] = post-emergence, Postemergence, scale 0 to 100 (0 no effect, 100 complete control), read-out: Ragweed plant response rating
[10] = pre-emergence, Preemergence, scale 0 to 100, 0 no effect, 100 complete control, read-out: Plant response rating, Ragweed
[11] = pre-emergence, Preemergence, scale 0 to 100, read-out: Plant response rating, Ragweed
[12] = post-emergence, Postemergence, scale 0 to 100 (0 no effect, 100 complete control), read-out: Foxtail, Giant plant response rating
[13] = pre-emergence, Preemergence, scale 0 to 100, 0 no effect, 100 complete control, read-out: Plant response rating, Foxtail, Giant
[14] = pre-emergence, Preemergence, scale 0 to 100, read-out: Plant response rating, Foxtail, Giant
[15] = post-emergence, Postemergence, scale 0 to 100 (0 no effect, 100 complete control), read-out: Johnsongrass plant response rating
[16] = pre-emergence, Preemergence, scale 0 to 100, 0 no effect, 100 complete control, read-out: Plant response rating, Johnsongrass
[17] = pre-emergence, Preemergence, scale 0 to 100, read-out: Plant response rating, Johnsongrass
[18] = post-emergence, Postemergence, scale 0 to 100 (0 no effect, 100 complete control), read-out: Kochia plant response rating
[19] = pre-emergence, Preemergence, scale 0 to 100, 0 no effect, 100 complete control, read-out: Plant response rating, Kochia
[20] = pre-emergence, Preemergence, scale 0 to 100, read-out: Plant response rating, Kochia

COC(=O)c1nc(C2CC2)nc(N)c1Cl [Compound 9, methyl 6-amino-5-chloro-2-cyclopropyl-4-pyrimidinecarboxylate]
pest or weed control at 125 g/ha [1, 6]: 75%
pest or weed control at 31 g/ha ([1]; post-emergence, Postemergence, read-out: Plant response rating (scale of 0 to 100), Surinam Grass): 45%
pest or weed control at 62 g/ha [1, 6]: 65%
pest or weed control at 250 g/ha ([1]; post-emergence, Postemergence, scale 0 to 100, read-out: Plant response rating, Surinam Grass): 80%
pest or weed control at 31 g/ha [1, 7]: 95%
pest or weed control at 62 g/ha [1, 7]: 100%
pest or weed control at 125 g/ha [1, 8]: 100%
pest or weed control at 250 g/ha [1, 8]: 100%
pest or weed control at 31 g/ha ([2]; 31 g ai/ha, scale 0 to 100, 0 no effect, 100 complete control): 100%
pest or weed control at 62 g/ha ([2]; 62 g ai/ha, scale 0 to 100, 0 no effect, 100 complete control): 100%
pest or weed control at 125 g/ha ([2]; 125 g ai/ha, scale 0 to 100): 100%
pest or weed control at 250 g/ha ([2]; 250 g ai/ha, scale 0 to 100): 100%
pest or weed control at 31 g/ha ([3]; post-emergence, Postemergence, read-out: Plant response rating (scale of 0 to 100), Ragweed): 70%
pest or weed control at 62 g/ha [3, 9]: 80%
pest or weed control at 125 g/ha [3, 9]: 95%
pest or weed control at 250 g/ha ([3]; post-emergence, Postemergence, scale 0 to 100, read-out: Plant response rating, Ragweed): 100%
pest or weed control at 31 g/ha [3, 10]: 100%
pest or weed control at 62 g/ha [3, 10]: 100%
pest or weed control at 125 g/ha [3, 11]: 100%
pest or weed control at 250 g/ha [3, 11]: 100%
pest or weed control at 125 g/ha [4, 12]: 75%
pest or weed control at 31 g/ha ([4]; post-emergence, Postemergence, read-out: Plant response rating (scale of 0 to 100), Foxtail, Giant): 60%
pest or weed control at 62 g/ha [4, 12]: 65%
pest or weed control at 250 g/ha ([4]; post-emergence, Postemergence, scale 0 to 100, read-out: Plant response rating, Foxtail, Giant): 80%
pest or weed control at 31 g/ha [4, 13]: 0%
pest or weed control at 62 g/ha [4, 13]: 0%
pest or weed control at 125 g/ha [4, 14]: 75%
pest or weed control at 250 g/ha [4, 14]: 80%
pest or weed control at 31 g/ha ([5]; post-emergence, Postemergence, read-out: Plant response rating (scale of 0 to 100), Johnsongrass): 55%
pest or weed control at 62 g/ha [5, 15]: 65%
pest or weed control at 125 g/ha [5, 15]: 80%
pest or weed control at 250 g/ha ([5]; post-emergence, Postemergence, scale 0 to 100, read-out: Plant response rating, Johnsongrass): 85%
pest or weed control at 31 g/ha [5, 16]: 15%
pest or weed control at 62 g/ha [5, 16]: 45%
pest or weed control at 125 g/ha [5, 17]: 65%
pest or weed control at 250 g/ha [5, 17]: 90%
pest or weed control at 31 g/ha (kochia (Kochia scoparia); post-emergence, Postemergence, read-out: Plant response rating (scale of 0 to 100), Kochia): 95%
pest or weed control at 62 g/ha (kochia (Kochia scoparia); [18]): 100%
pest or weed control at 125 g/ha (kochia (Kochia scoparia); [18]): 100%
pest or weed control at 250 g/ha (kochia (Kochia scoparia); post-emergence, Postemergence, scale 0 to 100, read-out: Plant response rating, Kochia): 100%
pest or weed control at 31 g/ha (kochia (Kochia scoparia); [19]): 95%
pest or weed control at 62 g/ha (kochia (Kochia scoparia); [19]): 95%
pest or weed control at 125 g/ha (kochia (Kochia scoparia); [20]): 100%
pest or weed control at 250 g/ha (kochia (Kochia scoparia); [20]): 100%
